In ChEMBL document CHEMBL4382257, “Identification and Profiling of Hydantoins-A Novel Class of Potent Antimycobacterial DprE1 Inhibitors” (J Med Chem, 2018):

Legend:
[1] = physchem; settings: buffer, pH 7.4, logD
[2] = Intrinsic clearance in human liver microsomes at 0.5 uM after 30 mins in presence of NADPH by LC-MS/MS analysis; assay type: ADME, Microsome; settings: 0.5 h
[3] = Intrinsic clearance in mouse liver microsomes at 0.5 uM after 30 mins in presence of NADPH by LC-MS/MS analysis; assay type: ADME, Microsome; settings: 0.5 h
[4] = buffer, pH 7.4

For `CC1(c2ccc(N3CCOC3=O)cc2)NC(=O)N(CC(=O)c2ccc(F)cc2F)C1=O` (stereo not given), which chromatographic logD [1] is on record?
Its chromatographic logD is 3.94.

And the CLH [2]?
Its CLH is under 0.4 mL/min/g.

And the CLH [3]?
Its CLH is 3.54 mL/min/g.

Which chromatographic logD [1] does the source give for `CC1(c2ccc(S(C)(=O)=O)cc2)NC(=O)N(CC(=O)c2ccc(F)cc2F)C1=O` (stereo not given) here?
The chromatographic logD was 3.64.

And the CLH [2]?
The CLH was 0.46 mL/min/g.

What about the CLH [3] of the same compound?
Its CLH is 2.5 mL/min/g.

For `CC1(c2ccc(NS(C)(=O)=O)cc2)NC(=O)N(CC(=O)c2ccc(F)cc2F)C1=O` (stereo not given), which chromatographic logD [1] is on record?
The chromatographic logD was 3.57.

What about the CLH [2] of the same compound?
Its CLH is 0.47 mL/min/g.

And the CLH [3]?
Its CLH is 3.29 mL/min/g.

With `CC1(c2ccc(C#N)cc2)NC(=O)N(CC(=NO)c2ccc(F)cc2F)C1=O` (stereo in doubt; 43a) as the compound, how does the logD [4] read?
The logD was 3.38.
